Test system: Energy system protein genes
Test: DNA chip mRNA expression in yeast, energy system protein genes (Table 4)
Format: cell-based, Saccharomyces cerevisiae S288C
Outline: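 S. cerevisiae S288C grown at 25° C in YPD were exposed in log phase for two hours to one toxic chemical at a growth-inhibiting, non-lethal concentration; untreated cells served as control. Poly(A) mRNA was reverse-transcribed with Cy3/Cy5-dUTP and hybridized to a whole-genome yeast DNA chip at 65° C for over 12 hours; values are fluorescence ratios versus untreated.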

Na2As [(1)] was tested, and the “The level of expressed mRNA in the presence of chemical substance/The level of expressed mRNA in the absence of chemical substance” value (yeast gene YJR048W) was 1.3, the “The level of expressed mRNA in the presence of chemical substance/The level of expressed mRNA in the absence of chemical substance” value (yeast gene YJR121W, cells incubated two hours with the chemical substance) was 1.2 and the “The level of expressed mRNA in the presence of chemical substance/The level of expressed mRNA in the absence of chemical substance” value (yeast gene YJR155W) was 7.6. For the same substance, the “The level of expressed mRNA in the presence of chemical substance/The level of expressed mRNA in the absence of chemical substance” value (yeast gene YKL016C, cells incubated two hours with the chemical substance) was 1.5, the “The level of expressed mRNA in the presence of chemical substance/The level of expressed mRNA in the absence of chemical substance” value (yeast gene YKL060C, cells incubated two hours with the chemical substance) was 1.7 and the “The level of expressed mRNA in the presence of chemical substance/The level of expressed mRNA in the absence of chemical substance” value (yeast gene YKL141W, cells incubated two hours with the chemical substance) was 1.6. The “The level of expressed mRNA in the presence of chemical substance/The level of expressed mRNA in the absence of chemical substance” value (yeast gene YKL148C, cells incubated two hours with the chemical substance) was 0.9, the “The level of expressed mRNA in the presence of chemical substance/The level of expressed mRNA in the absence of chemical substance” value (yeast gene YKR009C, cells incubated two hours with the chemical substance) was 1.0 and the “The level of expressed mRNA in the presence of chemical substance/The level of expressed mRNA in the absence of chemical substance” value (yeast gene YKR058W, cells incubated two hours with the chemical substance, 25° C., YPD medium) was 1.3. For the same substance, the “The level of expressed mRNA in the presence of chemical substance/The level of expressed mRNA in the absence of chemical substance” value (yeast gene YKR097W) was 1.6, the “The level of expressed mRNA in the presence of chemical substance/The level of expressed mRNA in the absence of chemical substance” value (yeast gene YLL041C, cells incubated two hours with the chemical substance) was 1.5 and the “The level of expressed mRNA in the presence of chemical substance/The level of expressed mRNA in the absence of chemical substance” value (yeast gene YLR038C, cells incubated two hours with the chemical substance) was 2.6. The “The level of expressed mRNA in the presence of chemical substance/The level of expressed mRNA in the absence of chemical substance” value (yeast gene YLR044C, cells incubated two hours with the chemical substance) was 0.8, the “The level of expressed mRNA in the presence of chemical substance/The level of expressed mRNA in the absence of chemical substance” value (yeast gene YLR134W, cells incubated two hours with the chemical substance) was 0.9 and the “The level of expressed mRNA in the presence of chemical substance/The level of expressed mRNA in the absence of chemical substance” value (yeast gene YLR258W, cells incubated two hours with the chemical substance) was 1.7. The “The level of expressed mRNA in the presence of chemical substance/The level of expressed mRNA in the absence of chemical substance” value (yeast gene YLR284C, cells incubated two hours with the chemical substance) was 0.9, the “The level of expressed mRNA in the presence of chemical substance/The level of expressed mRNA in the absence of chemical substance” value (yeast gene YLR295C, cells incubated two hours with the chemical substance, 25° C., YPD medium) was 1.5 and the “The level of expressed mRNA in the presence of chemical substance/The level of expressed mRNA in the absence of chemical substance” value (yeast gene YLR304C, cells incubated two hours with the chemical substance) was 0.7. For the same substance, the “The level of expressed mRNA in the presence of chemical substance/The level of expressed mRNA in the absence of chemical substance” value (yeast gene YLR345W) was 1.4, the “The level of expressed mRNA in the presence of chemical substance/The level of expressed mRNA in the absence of chemical substance” value (yeast gene YLR354C, cells incubated two hours with the chemical substance) was 1.2 and the “The level of expressed mRNA in the presence of chemical substance/The level of expressed mRNA in the absence of chemical substance” value (yeast gene YLR377C, cells incubated two hours with the chemical substance) was 1.1. The “The level of expressed mRNA in the presence of chemical substance/The level of expressed mRNA in the absence of chemical substance” value (yeast gene YLR395C, cells incubated two hours with the chemical substance) was 1.8, the “The level of expressed mRNA in the presence of chemical substance/The level of expressed mRNA in the absence of chemical substance” value (yeast gene YML087C) was 1.8 and the “The level of expressed mRNA in the presence of chemical substance/The level of expressed mRNA in the absence of chemical substance” value (yeast gene YML120C, cells incubated two hours with the chemical substance) was 1.1. The “The level of expressed mRNA in the presence of chemical substance/The level of expressed mRNA in the absence of chemical substance” value (yeast gene YML129C, cells incubated two hours with the chemical substance) was 1.1, the “The level of expressed mRNA in the presence of chemical substance/The level of expressed mRNA in the absence of chemical substance” value (yeast gene YMR073C, cells incubated two hours with the chemical substance) was 1.1 and the “The level of expressed mRNA in the presence of chemical substance/The level of expressed mRNA in the absence of chemical substance” value (yeast gene YMR118C) was 1.3. The “The level of expressed mRNA in the presence of chemical substance/The level of expressed mRNA in the absence of chemical substance” value (yeast gene YMR205C, cells incubated two hours with the chemical substance) was 0.5, the “The level of expressed mRNA in the presence of chemical substance/The level of expressed mRNA in the absence of chemical substance” value (yeast gene YMR261C, cells incubated two hours with the chemical substance) was 0.8 and the “The level of expressed mRNA in the presence of chemical substance/The level of expressed mRNA in the absence of chemical substance” value (yeast gene YMR267W, cells incubated two hours with the chemical substance, 25° C., YPD medium) was 0.8. For the same substance, the “The level of expressed mRNA in the presence of chemical substance/The level of expressed mRNA in the absence of chemical substance” value (yeast gene YMR323W, cells incubated two hours with the chemical substance) was 0.8, the “The level of expressed mRNA in the presence of chemical substance/The level of expressed mRNA in the absence of chemical substance” value (yeast gene YNL071W) was 0.9 and the “The level of expressed mRNA in the presence of chemical substance/The level of expressed mRNA in the absence of chemical substance” value (yeast gene YNL202W, cells incubated two hours with the chemical substance) was 0.7. The “The level of expressed mRNA in the presence of chemical substance/The level of expressed mRNA in the absence of chemical substance” value (yeast gene YNL241C) was 1.3, the “The level of expressed mRNA in the presence of chemical substance/The level of expressed mRNA in the absence of chemical substance” value (yeast gene YNL331C) was 8.6 and the “The level of expressed mRNA in the presence of chemical substance/The level of expressed mRNA in the absence of chemical substance” value (yeast gene YOL086C, cells incubated two hours with the chemical substance) was 1.1. For the same substance, the “The level of expressed mRNA in the presence of chemical substance/The level of expressed mRNA in the absence of chemical substance” value (yeast gene YOL165C) was 10.1, the “The level of expressed mRNA in the presence of chemical substance/The level of expressed mRNA in the absence of chemical substance” value (yeast gene YOR142W, cells incubated two hours with the chemical substance) was 1.3 and the “The level of expressed mRNA in the presence of chemical substance/The level of expressed mRNA in the absence of chemical substance” value (yeast gene YOR178C, cells incubated two hours with the chemical substance) was 1.4. For the same substance, the “The level of expressed mRNA in the presence of chemical substance/The level of expressed mRNA in the absence of chemical substance” value (yeast gene YOR388C, cells incubated two hours with the chemical substance) was 1.0, the “The level of expressed mRNA in the presence of chemical substance/The level of expressed mRNA in the absence of chemical substance” value (yeast gene YPL031C, cells incubated two hours with the chemical substance) was 0.9 and the “The level of expressed mRNA in the presence of chemical substance/The level of expressed mRNA in the absence of chemical substance” value (yeast gene YPL061W, cells incubated two hours with the chemical substance) was 0.4. The “The level of expressed mRNA in the presence of chemical substance/The level of expressed mRNA in the absence of chemical substance” value (yeast gene YPL088W) was 3.3, the “The level of expressed mRNA in the presence of chemical substance/The level of expressed mRNA in the absence of chemical substance” value (yeast gene YPL171C) was 15.2 and the “The level of expressed mRNA in the presence of chemical substance/The level of expressed mRNA in the absence of chemical substance” value (yeast gene YPL240C) was 0.7. The “The level of expressed mRNA in the presence of chemical substance/The level of expressed mRNA in the absence of chemical substance” value (yeast gene YPL262W, cells incubated two hours with the chemical substance) was 1.1, the “The level of expressed mRNA in the presence of chemical substance/The level of expressed mRNA in the absence of chemical substance” value (yeast gene YPL275W, cells incubated two hours with the chemical substance) was 0.6 and the “The level of expressed mRNA in the presence of chemical substance/The level of expressed mRNA in the absence of chemical substance” value (yeast gene YPL276W, cells incubated two hours with the chemical substance) was 1.2. For the same substance, the “The level of expressed mRNA in the presence of chemical substance/The level of expressed mRNA in the absence of chemical substance” value (yeast gene YPR048W, cells incubated two hours with the chemical substance) was 1.3 and the “The level of expressed mRNA in the presence of chemical substance/The level of expressed mRNA in the absence of chemical substance” value (yeast gene YPR184W, cells incubated two hours with the chemical substance) was 1.2.

From patent US8192962B2, “Processes for detecting toxic substances” (Daikin Industries, Ltd., priority 2001, dated 2012)
